Assay results: ChEMBL document CHEMBL3797185, “Exploring the 2- and 5-positions of the pyrazolo[4,3-d]pyrimidin-7-amino scaffold to target human A1 and A2A adenosine receptors” (Bioorg Med Chem, 2016)

Columns and labels:
[1] = target: T1, Adenosine receptor A2b (Homo sapiens, UniProt P29275); assay: Antagonist activity at human adenosine A2B receptor expressed in CHO cell membranes assessed as inhibition of NECA-stimulated cAMP level preincubated for 10 mins followed by NECA stimulation by scintillation counting method in presence of [3H]-cyclic AMP; format: functional
T1 sequence (P29275 whole entry): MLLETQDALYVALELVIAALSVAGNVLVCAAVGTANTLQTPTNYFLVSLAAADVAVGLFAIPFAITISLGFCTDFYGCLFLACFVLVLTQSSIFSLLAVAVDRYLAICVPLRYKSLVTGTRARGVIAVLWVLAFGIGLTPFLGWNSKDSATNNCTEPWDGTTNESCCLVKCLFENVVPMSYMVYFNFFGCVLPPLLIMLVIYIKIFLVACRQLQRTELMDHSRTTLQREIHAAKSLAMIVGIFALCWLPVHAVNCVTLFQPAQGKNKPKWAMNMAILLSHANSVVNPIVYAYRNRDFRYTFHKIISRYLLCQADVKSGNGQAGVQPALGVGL

[2] = species: Homo sapiens; assay: Selectivity ratio of Ki for human adenosine A1 receptor to Ki for human adenosine A2A receptor
[3] = target: T2, Adenosine receptor A1 (Homo sapiens, UniProt P30542); assay: Displacement of [3H]-DPCPX from human adenosine A1 receptor expressed in CHO cell membranes after 120 mins by scintillation counting method
T2 sequence (P30542 whole entry): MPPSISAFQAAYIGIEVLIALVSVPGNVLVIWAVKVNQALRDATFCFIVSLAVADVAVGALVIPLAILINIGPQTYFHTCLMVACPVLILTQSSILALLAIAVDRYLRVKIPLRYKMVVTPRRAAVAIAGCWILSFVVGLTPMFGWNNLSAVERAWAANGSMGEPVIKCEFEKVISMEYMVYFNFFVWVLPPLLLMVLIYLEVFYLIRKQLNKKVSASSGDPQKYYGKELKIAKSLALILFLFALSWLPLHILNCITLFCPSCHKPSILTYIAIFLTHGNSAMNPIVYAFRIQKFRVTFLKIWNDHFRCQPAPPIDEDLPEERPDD

[4] = target: T3, Adenosine receptor A2a (Homo sapiens, UniProt P29274); assay: Displacement of [3H]-ZM241385 from human adenosine A2A receptor expressed in CHO cell membranes after 60 mins by scintillation counting method
T3 sequence (P29274 whole entry): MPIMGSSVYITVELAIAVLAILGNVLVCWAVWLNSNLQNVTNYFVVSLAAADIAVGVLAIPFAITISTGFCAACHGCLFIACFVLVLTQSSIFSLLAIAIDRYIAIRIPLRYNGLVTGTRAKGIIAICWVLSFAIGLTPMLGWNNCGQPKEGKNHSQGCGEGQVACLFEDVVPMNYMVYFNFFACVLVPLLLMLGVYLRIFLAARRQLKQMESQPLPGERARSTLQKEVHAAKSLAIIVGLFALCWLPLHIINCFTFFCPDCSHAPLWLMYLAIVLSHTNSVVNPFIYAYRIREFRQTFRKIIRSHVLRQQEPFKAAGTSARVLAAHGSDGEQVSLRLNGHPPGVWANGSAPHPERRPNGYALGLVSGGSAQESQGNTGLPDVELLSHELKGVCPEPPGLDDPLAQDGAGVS

[5] = target: T4, Adenosine receptor A3 (Homo sapiens, UniProt P0DMS8); assay: Displacement of [125I]-AB-MECA from human adenosine A3 receptor expressed in CHO cell membranes after 60 mins by scintillation counting method
T4 sequence (P0DMS8 whole entry): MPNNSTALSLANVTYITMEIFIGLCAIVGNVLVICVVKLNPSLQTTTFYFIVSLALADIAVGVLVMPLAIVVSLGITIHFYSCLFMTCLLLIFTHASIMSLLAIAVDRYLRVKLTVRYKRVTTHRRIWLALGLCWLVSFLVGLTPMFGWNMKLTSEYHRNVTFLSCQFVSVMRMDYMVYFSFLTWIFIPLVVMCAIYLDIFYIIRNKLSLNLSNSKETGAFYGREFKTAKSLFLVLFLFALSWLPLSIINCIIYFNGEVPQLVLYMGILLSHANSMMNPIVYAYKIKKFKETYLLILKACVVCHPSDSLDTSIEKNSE

[6] = target: T5, Adenosine receptor A2b (Homo sapiens) (UniProt P29275); assay: Antagonist activity at human adenosine A2B receptor expressed in CHO cell membranes assessed as inhibition of NECA-stimulated cAMP level at 1 uM preincubated for 10 mins followed by NECA stimulation by scintillation counting method in presence of [3H]-cyclic AMP; format: functional
T5 sequence (whole entry): T1 sequence (P29275 whole entry)

[7] = target: T3, Adenosine receptor A2a; assay: Displacement of [3H]-ZM241385 from human adenosine A2A receptor expressed in CHO cell membranes at 1 uM after 60 mins by scintillation counting method relative to control
[8] = target: T6, Adenosine receptor A3 (Homo sapiens) (UniProt P0DMS8); assay: Displacement of [125I]-AB-MECA from human adenosine A3 receptor expressed in CHO cell membranes at 1 uM after 60 mins by scintillation counting method relative to control
T6 sequence (whole entry): T4 sequence (P0DMS8 whole entry)

[9] = target: T7, Adenosine receptor A1 (Homo sapiens) (UniProt P30542); assay: Displacement of [3H]-DPCPX from human adenosine A1 receptor expressed in CHO cell membranes at 1 uM after 120 mins by scintillation counting method relative to control
T7 sequence (whole entry): T2 sequence (P30542 whole entry)

[10] = target: T3, Adenosine receptor A2a; assay: Antagonist activity at human adenosine A2A receptor expressed in CHO cell membranes assessed as inhibition of NECA-stimulated cAMP level preincubated for 10 mins followed by NECA stimulation by scintillation counting method in presence of [3H]-cyclic AMP; format: functional
[11] = target: T2, Adenosine receptor A1; assay: Antagonist activity at human adenosine A1 receptor expressed in CHO cell membranes assessed as suppression of CCPA-mediated inhibition of cAMP level by scintillation counting method in presence of [3H]-cyclic AMP; format: functional

IC50 [1] [nM]	Ratio Ki [2]	Ki [3] [nM]	Ki [4] [nM]	Ki [5] [nM]	inhibition [6] [%]	inhibition [7] [%]	inhibition [8] [%]	inhibition [9] [%]	IC50 [10] [nM]	IC50 [11] [nM]	SMILES
633	3	65	14	225	–	–	–	–	–	–	Cc1ccc(-c2nc(N)c3nn(Cc4cccc(O)c4)cc3n2)o1
–	–	410	–	–	8	23	8	–	–	–	Cc1nc(N)c2nn(-c3ccccc3F)cc2n1
112	3	242	17	905	–	–	–	–	–	–	Nc1nc(-c2ccco2)nc2cn(Cc3ccccc3O)nc12
–	–	–	–	–	1	1	15	1	–	–	Nc1nc(Cc2ccccc2)nc2cn(Cc3ccccc3)nc12
–	–	–	–	150	1	27	–	24	–	–	COc1ccccc1-n1cc2nc(-c3cccs3)nc(N)c2n1
–	–	372	89	–	42	–	36	–	–	–	Nc1nc(-c2ccco2)nc2cn(-c3ccccc3O)nc12
293	22	120	5.26	88	–	–	–	–	6.42	134	COc1cccc(Cn2cc3nc(-c4ccc(C)o4)nc(N)c3n2)c1
–	–	–	–	–	3	12	3	10	–	–	Cc1nc(N)c2nn(CCc3ccccc3)cc2n1
354	3	309	57	498	–	–	–	–	–	–	Cc1ccc(-c2nc(N)c3nn(Cc4ccccc4F)cc3n2)o1
–	–	–	362	–	12	–	37	31	–	–	COc1ccccc1-n1cc2nc(-c3ccco3)nc(N)c2n1
421	3	252	51	427	–	–	–	–	–	–	Cc1ccc(-c2nc(N)c3nn(Cc4cccc(F)c4)cc3n2)o1
–	–	17	240	–	5	–	5	–	–	–	Nc1nc(CCCc2ccccc2)nc2cn(-c3ccccc3O)nc12
–	–	159	412	209	28	–	–	–	–	–	Nc1nc(-c2cccs2)nc2cn(-c3ccccc3O)nc12
–	–	103	–	405	1	34	–	–	–	–	COc1ccccc1-n1cc2nc(Cc3ccccc3)nc(N)c2n1
–	–	–	–	–	2	1	30	36	–	–	Cn1cc2nc(CCCc3ccccc3)nc(N)c2n1
–	–	–	147	375	1	–	–	1	–	–	Cc1ccc(-c2nc(N)c3nn(-c4ccccc4O)cc3n2)o1

IC50 [1] [nM]	Ratio Ki [2]	Ki [3] [nM]	Ki [4] [nM]	Ki [5] [nM]	inhibition [6] [%]	inhibition [7] [%]	inhibition [8] [%]	inhibition [9] [%]	IC50 [10] [nM]	IC50 [11] [nM]	SMILES
–	–	–	–	163	1	43	–	25	–	–	Nc1nc(CCCc2ccccc2)nc2cn(-c3ccccc3F)nc12
–	–	–	–	–	20	1	1	9	–	–	Cn1cc2nc(Cc3ccccc3)nc(N)c2n1
–	15	136	9.23	269	20	–	–	–	10.9	152	Cc1ccc(-c2nc(N)c3nn(Cc4ccccc4)cc3n2)o1
–	–	–	–	–	3	33	4	12	–	–	Nc1nc(-c2ccco2)nc2cn(CCc3ccccc3)nc12
395	3	111	38	122	–	–	–	–	–	–	Cc1ccc(-c2nc(N)c3nn(Cc4ccccc4O)cc3n2)o1
152	3	60	6.21	71	–	–	–	–	–	–	Cc1ccc(-c2nc(N)c3nn(Cc4ccccc4Cl)cc3n2)o1
–	–	206	195	–	1	–	39	–	–	–	Nc1nc(-c2ccco2)nc2cn(-c3ccccc3)nc12
512	3	98	5.37	196	–	–	–	–	6.21	106	COc1ccccc1Cn1cc2nc(-c3ccco3)nc(N)c2n1
–	–	–	518	297	1	–	–	1	–	–	COc1ccccc1-n1cc2nc(-c3ccc(C)o3)nc(N)c2n1
–	3	18	3.62	82	30	–	–	–	4.35	21	COc1ccccc1Cn1cc2nc(-c3ccc(C)o3)nc(N)c2n1
–	–	–	–	–	1	1	1	1	–	–	Cc1nc(N)c2nn(Cc3ccccc3)cc2n1
–	–	49	647	–	21	–	6	–	–	–	COc1ccccc1-n1cc2nc(CCCc3ccccc3)nc(N)c2n1
–	–	52	–	–	1	21	19	–	–	–	Nc1nc(Cc2ccccc2)nc2cn(-c3ccccc3O)nc12
–	–	–	320	–	37	–	2	32	–	–	Nc1nc(-c2ccco2)nc2cn(Cc3ccccc3)nc12
–	–	42	99	147	32	–	–	–	–	–	Cc1ccc(-c2nc(N)c3nn(-c4ccccc4)cc3n2)o1
